Measurements: ChEMBL document CHEMBL3872259, “Synthesis, characterization, and in vitro SAR evaluation of N,N'-bis(arylmethyl)-C2-alkyl substituted imidazolium salts” (Bioorg Med Chem Lett, 2017)
Each block holds one molecule with its values, some of them ahead of it.

What was measured:
[1] = Antiproliferative activity against human HOP62 cells assessed as cell growth at 10 uM measured after 48 hrs by sulforhodamine B assay relative to control; assay type: functional; conditions: HOP-62, 48 h, read-out: Activity
[2] = Antiproliferative activity against human EKVX cells assessed as cell growth at 10 uM measured after 48 hrs by sulforhodamine B assay relative to control; assay type: functional; conditions: read-out: Activity
[3] = Antiproliferative activity against human A549/ATCC cells assessed as cell growth at 10 uM measured after 48 hrs by sulforhodamine B assay relative to control; assay type: functional; conditions: A549, 48 h, read-out: Activity
[4] = Antiproliferative activity against human NCI-H460 cells assessed as reduction in cell viability measured after 72 hrs by MTT assay; assay type: functional, cell-based; conditions: NCI-H460, 72 h; for CC50: read-out: LC50 (the source's name)
[5] = Antiproliferative activity against human NCI-H1975 cells assessed as reduction in cell viability measured after 72 hrs by MTT assay; assay type: functional, cell-based; conditions: NCI-H1975, 72 h
[6] = Antiproliferative activity against human HCC827 cells assessed as reduction in cell viability measured after 72 hrs by MTT assay; assay type: functional, cell-based; conditions: HCC827, 72 h
[7] = Antiproliferative activity against human A549 cells assessed as reduction in cell viability measured after 72 hrs by MTT assay; assay type: functional, cell-based; conditions: A549, 72 h
[8] = Antiproliferative activity against human HOP92 cells assessed as cell growth at 10 uM measured after 48 hrs by sulforhodamine B assay relative to control; assay type: functional; conditions: HOP-92, 48 h, read-out: Activity
[9] = Antiproliferative activity against human NCI-H226 cells assessed as cell growth at 10 uM measured after 48 hrs by sulforhodamine B assay relative to control; assay type: functional; conditions: NCI-H226, 48 h, read-out: Activity
[10] = Antiproliferative activity against human NCI-H23 cells assessed as cell growth at 10 uM measured after 48 hrs by sulforhodamine B assay relative to control; assay type: functional; conditions: NCI-H23, 48 h, read-out: Activity
[11] = Antiproliferative activity against human NCI-H322M cells assessed as cell growth at 10 uM measured after 48 hrs by sulforhodamine B assay relative to control; assay type: functional; conditions: read-out: Activity
[12] = Antiproliferative activity against human NCI-H460 cells assessed as cell growth at 10 uM measured after 48 hrs by sulforhodamine B assay relative to control; assay type: functional; conditions: NCI-H460, 48 h, read-out: Activity
[13] = Antiproliferative activity against human NCI-H522 cells assessed as cell growth at 10 uM measured after 48 hrs by sulforhodamine B assay relative to control; assay type: functional; conditions: NCI-H522, 48 h, read-out: Activity
[14] = Growth inhibition of human EKVX cells measured after 48 hrs by sulforhodamine B assay; assay type: functional; conditions: for CC50: read-out: LC50 (the source's name)
[15] = Growth inhibition of human HOP62 cells measured after 48 hrs by sulforhodamine B assay; assay type: functional; conditions: HOP-62, 48 h; for CC50: read-out: LC50 (the source's name)
[16] = Growth inhibition of human HOP92 cells measured after 48 hrs by sulforhodamine B assay; assay type: functional; conditions: HOP-92, 48 h; for CC50: read-out: LC50 (the source's name)
[17] = Growth inhibition of human NCI-H226 cells measured after 48 hrs by sulforhodamine B assay; assay type: functional; conditions: NCI-H226, 48 h; for CC50: read-out: LC50 (the source's name)
[18] = Growth inhibition of human NCI-H23 cells measured after 48 hrs by sulforhodamine B assay; assay type: functional; conditions: NCI-H23, 48 h; for CC50: read-out: LC50 (the source's name)
[19] = Growth inhibition of human NCI-H322M cells measured after 48 hrs by sulforhodamine B assay; assay type: functional; conditions: for CC50: read-out: LC50 (the source's name)
[20] = Growth inhibition of human NCI-H522 cells measured after 48 hrs by sulforhodamine B assay; assay type: functional; conditions: NCI-H522, 48 h
[21] = Aqueous solubility of the compound; assay type: physicochemical; conditions: buffer

Structure (SMILES): c1ccc2cc(Cn3cc[n+](Cc4ccc5ccccc5c4)c3)ccc2c1
- growth at 10 µM [1]: 42.1%
- growth at 10 µM [2]: 51.6%
- growth at 10 µM [3]: 67.6%
- GI50 [4]: 1.27 µM
- IC50 [4]: 4 µM
- TGI [4]: 10.4 µM
- CC50 [4]: 42 µM
- IC50 [5]: 6 µM
- IC50 [6]: 9 µM
- GI50 [7]: 7.97 µM
- LC50 [7]: 55.3 µM
- TGI [7]: 22.9 µM
- growth at 10 µM [8]: -13.3%
- growth at 10 µM [9]: 52.1%
- growth at 10 µM [10]: 41.6%
- growth at 10 µM [11]: 62.8%
- growth at 10 µM [12]: 39.6%
- growth at 10 µM [13]: -11.7%
- GI50 [14]: 2.51 µM
- TGI [14]: 15.5 µM
- CC50 [14]: 4.75 µM
- GI50 [15]: 3.26 µM
- TGI [15]: 17 µM
- CC50 [15]: 45.9 µM
- GI50 [16]: 0.16 µM
- TGI [16]: 1.39 µM
- CC50 [16]: 15.2 µM
- GI50 [17]: 1.72 µM
- TGI [17]: 14.3 µM
- CC50 [17]: 71.9 µM
- GI50 [18]: 0.901 µM
- TGI [18]: 10.1 µM
- CC50 [18]: 39.4 µM
- GI50 [19]: 8.4 µM
- TGI [19]: 21.3 µM
- CC50 [19]: 47.3 µM
- GI50 [20]: 0.393 µM
- LC50 (50% lethal concentration) [20]: 26.8 µM
- TGI [20]: 3.11 µM

Structure (SMILES): [Br-].c1ccc(-c2n(Cc3ccc4ccccc4c3)cc[n+]2Cc2ccc3ccccc3c2)cc1
- growth at 10 µM [1]: -44.8%
- growth at 10 µM [2]: 3.5%
- growth at 10 µM [3]: 12.5%
- GI50 [4]: 1.37 µM
- IC50 [4]: 3 µM
- TGI [4]: 2.87 µM
- IC50 [5]: 2 µM
- IC50 [6]: 2 µM
- GI50 [7]: 1.78 µM
- IC50 [7]: 4 µM
- TGI [7]: 3.52 µM
- solubility [21]: < 0.5 mM
- growth at 10 µM [8]: -69.7%
- growth at 10 µM [9]: -9.03%
- growth at 10 µM [10]: -38.7%
- growth at 10 µM [11]: 8.84%
- growth at 10 µM [12]: -78.4%
- GI50 [14]: 1.58 µM
- TGI [14]: 3.43 µM
- GI50 [15]: 1.46 µM
- TGI [15]: 3.23 µM
- GI50 [16]: 0.602 µM
- TGI [16]: 2.28 µM
- GI50 [17]: 1.26 µM
- TGI [17]: 2.97 µM
- GI50 [18]: 0.775 µM
- TGI [18]: 2.35 µM
- CC50 [18]: 6.14 µM
- GI50 [19]: 1.42 µM
- TGI [19]: 2.82 µM
- CC50 [19]: 5.61 µM
- GI50 [20]: 1.07 µM
- TGI [20]: 2.58 µM

Structure (SMILES): CCc1n(Cc2ccc3ccccc3n2)cc[n+]1Cc1ccc2ccccc2c1.[Br-]
- growth at 10 µM [1]: 1.85%
- growth at 10 µM [2]: 15.9%
- growth at 10 µM [3]: 37.3%
- GI50 [4]: 0.456 µM
- IC50 [4]: 2 µM
- TGI [4]: 10.8 µM
- CC50 [4]: 49.5 µM
- IC50 [5]: < 1 µM
- IC50 [6]: 5 µM
- GI50 [7]: 0.997 µM
- IC50 [7]: 3 µM
- LC50 [7]: 46.1 µM
- TGI [7]: 14.1 µM
- solubility [21]: 5 mM
- growth at 10 µM [8]: -20.1%
- growth at 10 µM [9]: 19.6%
- growth at 10 µM [10]: -4.2%
- growth at 10 µM [11]: 34.8%
- growth at 10 µM [12]: 11.1%
- growth at 10 µM [13]: -27.4%
- GI50 [14]: 0.442 µM
- TGI [14]: 7.34 µM
- CC50 [14]: 38.7 µM
- GI50 [15]: 1.4 µM
- TGI [15]: 7.02 µM
- CC50 [15]: 32.1 µM
- GI50 [16]: 0.184 µM
- TGI [16]: 0.671 µM
- CC50 [16]: 7.04 µM
- GI50 [17]: 1.06 µM
- TGI [17]: 4.87 µM
- CC50 [17]: 39.4 µM
- GI50 [18]: 0.311 µM
- TGI [18]: 3.23 µM
- CC50 [18]: 37 µM
- GI50 [19]: 2.86 µM
- TGI [19]: 13.8 µM
- CC50 [19]: 38.1 µM
- GI50 [20]: 0.275 µM
- LC50 (50% lethal concentration) [20]: 13.3 µM
- TGI [20]: 0.986 µM

- solubility [21]: > 10 mM
Structure (SMILES): CCCCc1n(Cc2ccc3ccccc3n2)cc[n+]1Cc1ccc2ccccc2c1.[Cl-]
- IC50 [4]: 3 µM
- IC50 [5]: 2 µM
- IC50 [6]: 6 µM
- IC50 [7]: 3 µM

Structure (SMILES): Cc1n(Cc2ccc3ccccc3n2)cc[n+]1Cc1ccc2ccccc2n1.[Cl-]
- growth at 10 µM [1]: 90.5%
- growth at 10 µM [2]: 80.7%
- growth at 10 µM [3]: 88.6%
- IC50 [4]: 8 µM
- IC50 [5]: 2 µM
- IC50 [6]: 13 µM
- IC50 [7]: 15 µM
- solubility [21]: > 80 mM
- growth at 10 µM [8]: 74.5%
- growth at 10 µM [9]: 88.1%
- growth at 10 µM [10]: 69.8%
- growth at 10 µM [11]: 103%
- growth at 10 µM [12]: 95%
- growth at 10 µM [13]: 35.9%
